Laboratory results taken from patent publication US8129371B2, “Thienopyrimidine and pyrazolopyrimidine compounds and their use as mTOR kinase and PI3 kinase inhibitors” (Wyeth LLC, priority 2007, dated 2012).
Where two headings read alike, the source gives them in different places.

Key:
PI3K [1] = target: T1, PI3K (Homo sapiens, UniProt P42336); assay: Fluorescence polarization assay for PI3K; type: biochemical; conditions: read-out: PI3 Kinase α IC50
T1 construct: PI3 Kinase α IC50; other: PI3 Kinase α; other: PI3 Kinase α isoform, fluorescence polarization
Outline: (§1)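 PI3K was preincubated with compound (final DMSO 1%), and the reaction was started with PIP2/ATP substrate and run 30–60 min. It was stopped with a detector mix giving 10 nM red probe and 70 nM GST-GRP.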

PI3K [2] = target: T2, PI3K (Homo sapiens, UniProt P48736); assay: Fluorescence polarization assay for PI3K; type: biochemical; conditions: read-out: PI3 Kinase γ IC50
T2 construct: PI3 Kinase γ IC50; other: PI3 Kinase γ; other: PI3 Kinase γ isoform, fluorescence polarization
Outline: as §1

breast line MDA468 = assay: In vitro cell culture growth assay (MTS), MDA468; type: cell-based; conditions: Homo sapiens, 72 h, MDA468 cells, three days after drug treatment
Outline: (§2)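 Cells were plated and, one day later, treated with inhibitors. Three days after treatment, viable cell density was measured by MTS dye conversion, read as absorbance at 490 nm. Effects are expressed as percent of control growth versus vehicle-treated cells on the same plate.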

prostate line LNCap = assay: In vitro cell culture growth assay (MTS), LNCap; type: cell-based; conditions: Homo sapiens, LNCaP, 72 h, LNCap cells, three days after drug treatment
Outline: as §2

Human mTOR (FLAG-TOR) = target: T3, Human mTOR (FLAG-TOR) (Homo sapiens, UniProt P42345); assay: Human mTOR kinase assay with purified enzyme, DELFIA format; type: biochemical
T3 construct: FLAG
Outline: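 Purified FLAG-mTOR in HEPES pH 7.4 buffer with 10 mM MnCl2 was preincubated with inhibitor and reacted 2 h at room temperature with His6-S6K substrate, then stopped with EDTA/EGTA. Phospho-T389 S6K detected by DELFIA with Eu-labelled antibody (40 ng/mL) after plate capture; inhibition computed from signal.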

[3] = PI3 Kinase α isoform, fluorescence polarization
[4] = PI3 Kinase γ isoform, fluorescence polarization
[5] = purified human mTOR enzyme, DELFIA format

T2 sequence (P48736 whole entry, canonical isoform): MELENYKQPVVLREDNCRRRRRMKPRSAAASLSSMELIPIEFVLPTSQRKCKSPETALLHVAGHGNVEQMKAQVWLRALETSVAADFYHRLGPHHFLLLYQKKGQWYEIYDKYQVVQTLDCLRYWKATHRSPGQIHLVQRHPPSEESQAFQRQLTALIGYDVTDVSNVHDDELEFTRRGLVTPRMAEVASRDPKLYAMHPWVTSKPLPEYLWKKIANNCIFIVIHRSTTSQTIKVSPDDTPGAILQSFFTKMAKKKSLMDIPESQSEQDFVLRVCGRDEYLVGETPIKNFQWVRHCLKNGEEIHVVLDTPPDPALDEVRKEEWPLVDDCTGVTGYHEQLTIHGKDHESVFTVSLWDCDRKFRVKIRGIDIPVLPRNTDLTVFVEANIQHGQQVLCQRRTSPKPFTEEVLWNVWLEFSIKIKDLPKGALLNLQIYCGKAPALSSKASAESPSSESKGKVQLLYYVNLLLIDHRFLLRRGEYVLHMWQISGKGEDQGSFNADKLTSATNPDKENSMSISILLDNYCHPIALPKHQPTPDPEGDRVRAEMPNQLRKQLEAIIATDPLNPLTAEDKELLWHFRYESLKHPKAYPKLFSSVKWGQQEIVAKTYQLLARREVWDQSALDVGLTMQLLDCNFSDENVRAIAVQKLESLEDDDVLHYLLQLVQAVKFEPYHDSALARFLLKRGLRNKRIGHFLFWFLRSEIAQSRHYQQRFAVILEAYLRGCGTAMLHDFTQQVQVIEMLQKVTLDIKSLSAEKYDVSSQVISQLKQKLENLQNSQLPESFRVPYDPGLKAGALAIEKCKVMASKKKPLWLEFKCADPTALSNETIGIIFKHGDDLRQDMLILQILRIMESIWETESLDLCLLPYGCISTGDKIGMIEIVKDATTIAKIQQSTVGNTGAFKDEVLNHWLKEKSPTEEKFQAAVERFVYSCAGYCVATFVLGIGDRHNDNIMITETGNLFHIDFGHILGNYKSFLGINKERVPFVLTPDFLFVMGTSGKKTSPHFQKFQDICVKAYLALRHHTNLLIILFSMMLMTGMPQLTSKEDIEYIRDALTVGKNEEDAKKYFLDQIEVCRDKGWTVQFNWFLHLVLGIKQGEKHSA
T1 sequence (P42336 whole entry, canonical isoform): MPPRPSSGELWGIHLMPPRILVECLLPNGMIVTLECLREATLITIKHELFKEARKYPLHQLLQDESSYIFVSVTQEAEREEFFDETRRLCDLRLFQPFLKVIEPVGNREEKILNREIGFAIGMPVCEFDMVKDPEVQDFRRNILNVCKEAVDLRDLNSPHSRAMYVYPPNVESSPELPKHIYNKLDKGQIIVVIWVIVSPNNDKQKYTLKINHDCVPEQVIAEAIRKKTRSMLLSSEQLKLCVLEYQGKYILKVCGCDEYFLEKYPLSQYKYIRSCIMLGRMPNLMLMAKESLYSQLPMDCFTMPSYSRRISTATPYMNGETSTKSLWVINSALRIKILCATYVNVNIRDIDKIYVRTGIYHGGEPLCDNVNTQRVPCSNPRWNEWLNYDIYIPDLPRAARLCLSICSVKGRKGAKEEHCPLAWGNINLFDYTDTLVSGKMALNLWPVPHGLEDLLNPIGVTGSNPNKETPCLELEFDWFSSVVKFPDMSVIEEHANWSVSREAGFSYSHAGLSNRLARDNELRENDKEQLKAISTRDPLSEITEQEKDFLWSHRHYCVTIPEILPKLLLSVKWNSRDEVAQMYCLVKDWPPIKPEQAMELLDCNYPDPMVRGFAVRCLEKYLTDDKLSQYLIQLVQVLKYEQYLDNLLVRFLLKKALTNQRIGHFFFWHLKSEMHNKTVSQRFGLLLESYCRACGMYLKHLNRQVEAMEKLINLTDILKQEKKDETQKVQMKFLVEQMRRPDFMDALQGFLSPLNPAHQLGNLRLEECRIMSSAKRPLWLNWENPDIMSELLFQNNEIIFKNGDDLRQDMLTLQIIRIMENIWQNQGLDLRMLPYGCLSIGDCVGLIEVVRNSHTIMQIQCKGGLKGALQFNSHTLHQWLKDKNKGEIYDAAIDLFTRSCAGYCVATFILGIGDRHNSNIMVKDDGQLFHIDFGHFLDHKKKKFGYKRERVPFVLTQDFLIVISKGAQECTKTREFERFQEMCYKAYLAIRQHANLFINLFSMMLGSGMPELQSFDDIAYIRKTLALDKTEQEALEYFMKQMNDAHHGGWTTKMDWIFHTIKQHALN

Compound	IC50 (PI3K [1]; PI3 Kinase α)	IC50 (PI3K [2]; PI3 Kinase γ)	IC50 (breast line MDA468)	IC50 (prostate line LNCap)	IC50 (Human mTOR (FLAG-TOR))	IC50 (PI3K [1]; [3])	IC50 (PI3K [2]; [4])	IC50 (Human mTOR (FLAG-TOR); [5])
CC(C)n1ncc2c(N3CC4CCC(C3)O4)nc(-c3ccc(NC(=O)OCC(O)CO)cc3)nc21 (stereo not shown) [Example 146, 2,3-dihydroxypropyl {4-[1-isopropyl-4-(8-oxa-3-azabicyclo[3.2.1]oct-3-yl)-1H-pyrazolo[3,4-d]pyrimidin-6-yl]phenyl}carbamate]	2.15 µM	7.64 µM	0.58 µM	0.11 µM	0.0029 µM			
N#CCCn1ncc2c(N3CC4CCC(C3)O4)nc(-c3ccc(NC(=O)Nc4ccc(N5CCOCC5)nc4)cc3)nc21 [Example 223, 1-{4-[1-(2-cyanoethyl)-4-(8-oxa-3-azabicyclo[3.2.1]oct-3-yl)-1H-pyrazolo[3,4-d]pyrimidin-6-yl]phenyl}-3-(6-morpholin-4-ylpyridin-3-yl)urea]	1.66 µM	> 10 µM	0.021 µM	0.01 µM	0.000265 µM			
CCn1nc(CN2CCCC2)c2c(N3CC4CCC(C3)O4)nc(-c3ccc(NC(=O)NC)cc3)nc21 [Example 354, 1-{4-[1-ethyl-4-(8-oxa-3-azabicyclo[3.2.1]oct-3-yl)-3-(pyrrolidin-1-ylmethyl)-1H-pyrazolo[3,4-d]pyrimidin-6-yl]phenyl}-3-methylurea]			2.9 µM	1.2 µM		2.39 µM	> 10 µM	0.0665 µM
COC1CCC(n2ncc3c(N4CC5CCC(C4)O5)nc(-c4ccc(NC(=O)Nc5ccncc5)cc4)nc32)CC1 (stereo not shown) [Example 303, 1-{4-[1-(4-methoxycyclohexyl)-4-(8-oxa-3-azabicyclo[3.2.1]oct-3-yl)-1H-pyrazolo[3,4-d]pyrimidin-6-yl]phenyl}-3-pyridin-4-ylurea]			0.001 µM	< 0.001 µM		0.164 µM	0.845 µM	0.000145 µM
CCn1ncc2c(N3CC4CCC(C3)O4)nc(-c3ccc(NC(=O)Nc4ccc(OCCN(C)C)cc4)cc3)nc21 [Example 186, 1-{4-[2-(dimethylamino)ethoxy]phenyl}-3-{4-[1-ethyl-4-(8-oxa-3-azabicyclo[3.2.1]oct-3-yl)-1H-pyrazolo[3,4-d]pyrimidin-6-yl]phenyl}urea]	0.136 µM	1.78 µM	0.008 µM	< 0.001 µM	0.000835 µM			
CC(C)C(=O)N1CCC(n2ncc3c(N4CC5CCC(C4)O5)nc(-c4ccc(NC(=O)NC5CC5)cc4)nc32)CC1 [Example 86, 1-cyclopropyl-3-{4-[1-(1-isobutyrylpiperidin-4-yl)-4-(8-oxa-3-azabicyclo[3.2.1]oct-3-yl)-1H-pyrazolo[3,4-d]pyrimidin-6-yl]phenyl}urea]	4.24 µM	> 10 µM	0.35 µM	0.08 µM	0.00066 µM			
O=C(Nc1ccncc1)Nc1ccc(-c2nc(N3CC4CCC(C3)O4)c3cnn(Cc4ccccc4)c3n2)cc1 [Example 79, 1-{4-[1-benzyl-4-(8-oxa-3-azabicyclo[3.2.1]oct-3-yl)-1H-pyrazolo[3,4-d]pyrimidin-6-yl]phenyl}-3-pyridin-4-ylurea]	1.98 µM	> 10 µM	0.15 µM	0.02 µM	0.0019 µM			
COC(=O)Nc1ccc(-c2nc(N3CC4CCC(C3)O4)c3cnn(C)c3n2)cc1 [Example 60, methyl {4-[1-methyl-4-(8-oxa-3-azabicyclo[3.2.1]oct-3-yl)-1H-pyrazolo[3,4-d]pyrimidin-6-yl]phenyl}carbamate]	3.32 µM	> 10 µM	6.8 µM	1.05 µM	0.028 µM			
O=C(Nc1ccc(-c2nc(N3CC4CCC(C3)O4)c3cnn(CCO)c3n2)cc1)Nc1cccnc1 [Example 199, 1-{4-[1-(2-hydroxyethyl)-4-(8-oxa-3-azabicyclo[3.2.1]oct-3-yl)-1H-pyrazolo[3,4-d]pyrimidin-6-yl]phenyl}-3-pyridin-3-ylurea]	0.174 µM	3.99 µM	0.11 µM	0.09 µM	0.00046 µM			
COC(=O)N1CCC(n2ncc3c(N4C5CCC4COC5)nc(-c4ccc(NC(=O)Nc5ccc(N6CCNCC6)cc5)cc4)nc32)CC1 [Example 364, methyl 4-[4-(3-oxa-8-azabicyclo[3.2.1]oct-8-yl)-6-(4-{[(4-piperazin-1-ylphenyl)carbamoyl]amino}phenyl)-1H-pyrazolo[3,4-d]pyrimidin-1-yl]piperidine-1-carboxylate]			0.004 µM	0.001 µM		1.23 µM	0.947 µM	0.00044 µM
CCOC(=O)Nc1ccc(-c2nc(N3CC4CCC(C3)O4)c3cnn(C4CCN(C(=O)OC)CC4)c3n2)cc1 [Example 111, methyl 4-[6-{4-[(ethoxycarbonyl)amino]phenyl}-4-(8-oxa-3-azabicyclo[3.2.1]oct-3-yl)-1H-pyrazolo[3,4-d]pyrimidin-1-yl]piperidine-1-carboxylate]	3.35 µM	12 µM	6 µM	0.7 µM	0.0085 µM			
CCNC(=O)Nc1ccc(-c2nc(N3CC4CCC(C3)O4)c3cnn(C4CCN(Cc5cccnc5)CC4)c3n2)cc1 [Example 15, 1-ethyl-3-(4-{4-(8-oxa-3-azabicyclo[3.2.1]oct-3-yl)-1-[1-(pyridin-3-ylmethyl)piperidin-4-yl]-1H-pyrazolo[3,4-d]pyrimidin-6-yl}phenyl)urea]	2.27 µM	> 10 µM	0.085 µM	0.004 µM	0.00031 µM			
O=C(Nc1ccc(-c2nc(N3CC4CCC(C3)O4)c3cnn(CCF)c3n2)cc1)NC1CC1 [Example 248, 1-cyclopropyl-3-{4-[1-(2-fluoroethyl)-4-(8-oxa-3-azabicyclo[3.2.1]oct-3-yl)-1H-pyrazolo[3,4-d]pyrimidin-6-yl]phenyl}urea]	1.82 µM	> 10 µM	0.5 µM	0.09 µM	0.000765 µM			
CNC(=O)Nc1ccc(-c2nc(N3CC4CCC(C3)O4)c3cnn(CC(F)(F)F)c3n2)cc1 [Example 1, 1-methyl-3-{4-[4-(8-oxa-3-azabicyclo[3.2.1]oct-3-yl)-1-(2,2,2-trifluoroethyl)-1H-pyrazolo[3,4-d]pyrimidin-6-yl]phenyl}urea]	1.62 µM	> 10 µM	0.046 µM	0.038 µM	0.00063 µM			
Cn1ncc2c(N3CC4CCC(C3)O4)nc(-c3ccc(NC(=O)Nc4ccc(N5CCOCC5)cc4)cc3)nc21 [Example 238, 1-{4-[1-methyl-4-(8-oxa-3-azabicyclo[3.2.1]oct-3-yl)-1H-pyrazolo[3,4-d]pyrimidin-6-yl]phenyl}-3-(4-morpholin-4-ylphenyl)urea]	0.371 µM	> 10 µM	0.008 µM	0.001 µM	0.000245 µM			
O=C(Nc1ccc(-c2nc(N3CC4CCC(C3)O4)c3cnn(C4CCC(O)CC4)c3n2)cc1)OCCO (stereo not shown) [Example 212, 2-hydroxyethyl {4-[1-(4-hydroxycyclohexyl)-4-(8-oxa-3-azabicyclo[3.2.1]oct-3-yl)-1H-pyrazolo[3,4-d]pyrimidin-6-yl]phenyl}carbamate]	3.96 µM	> 10 µM	0.19 µM	0.042 µM	0.000565 µM			
O=C(NCCO)Nc1ccc(-c2nc(N3CC4CCC(C3)O4)c3cnn(C4CCC5(CC4)OCCO5)c3n2)cc1 [Example 125, 1-{4-[1-(1,4-dioxaspiro[4.5]dec-8-yl)-4-(8-oxa-3-azabicyclo[3.2.1]oct-3-yl)-1H-pyrazolo[3,4-d]pyrimidin-6-yl]phenyl}-3-(2-hydroxyethyl)urea]	1.35 µM	> 10 µM	0.04 µM	0.008 µM	0.000235 µM			
CC(C)C(=O)N1CCC(n2ncc3c(N4CC5CCC(C4)O5)nc(-c4ccc(NC(=O)Nc5ccccc5)cc4)nc32)CC1 [Example 87, 1-{4-[1-(1-isobutyrylpiperidin-4-yl)-4-(8-oxa-3-azabicyclo[3.2.1]oct-3-yl)-1H-pyrazolo[3,4-d]pyrimidin-6-yl]phenyl}-3-phenylurea]	0.396 µM	7.02 µM	0.12 µM	0.03 µM	0.0008 µM			
CN1CCN(C2CCC(n3ncc4c(N5CC6CCC(C5)O6)nc(-c5ccc(NC(=O)Nc6cccnc6)cc5)nc43)CC2)CC1 (stereo not shown) [Example 330, 1-(4-{1-[4-(4-methylpiperazin-1-yl)cyclohexyl]-4-(8-oxa-3-azabicyclo[3.2.1]oct-3-yl)-1H-pyrazolo[3,4-d]pyrimidin-6-yl}phenyl)-3-pyridin-3-ylurea]			0.06 µM	0.007 µM		0.238 µM	1.85 µM	0.000405 µM
CNC(=O)Nc1ccc(-c2nc(N3CC4CCC(C3)O4)c3cnn(CCN(C)C)c3n2)cc1 [Example 153, 1-(4-{1-[2-(dimethylamino)ethyl]-4-(8-oxa-3-azabicyclo[3.2.1]oct-3-yl)-1H-pyrazolo[3,4-d]pyrimidin-6-yl}phenyl)-3-methylurea]	0.966 µM	4.24 µM	2.2 µM	0.4 µM	0.0145 µM			
